Data: patent US20230270731A1, “THERAPEUTIC COMPOUNDS AND COMPOSITIONS” (eXIthera Pharmaceuticals, Inc., priority 2019, published 2023)
Converted amounts (≈) assume the structure as drawn. Where two headings read alike, the source gives them in different places.

How the values were obtained:
[1] = Equilibrium solubility of Compound 1 in common buffers; assay type: physicochemical; conditions: thermodynamic from solid, read-out: Avg. c(Compound 1, FB), equilibrium solubility
Description: The equilibrium solubility of Compound 1 was tested in common buffers (Table 2) at a buffer strength of c(buffer)=200 mM. For this, samples of Compound 1 with c(Compound 1, target)=16 mg/mL were prepared in the different buffer solutions (Table 3), mixed by vortexing and inspected for solid residues. For the cases for which no solid residues were observed the solutions were arbitrarily supplemented with additional solid Compound 1. This process was repeated (hourly observation) until a solid residue remained readily observable. The samples were rotated at room temperature for 24 h.
The equilibrium solubility samples were cleared by centrifugation (table top centrifuge, rcf=16,100×g, 10 min). The supernatant was subjected to HPLC analysis and assayed in triplicates for Compound 1 concentration using the HPLC method described in Example 2. The pH of the supernatant was measured (Table 3).

[2] = Compatibility with vials and stoppers; assay type: physicochemical
Description: The compatibility of the reconstituted Compound 1 formulation with sterile manufacturing vials and stoppers (Table 17) was tested for a contact time of Δt=1 h at c(Compound 1, target)=10 mg/mL at ambient conditions. The average values of % recovery are relative to the reconstituted drug product that has not been in contact with the tested materials.

[3] = Compatibility with infusion bags; assay type: physicochemical
Description: The compatibility of the reconstituted Compound 1 formulation with two infusion bags (different volumes and material) and two IV lines was tested (Table 13) at c(Compound 1)=0.1 mg/mL. After injection of the reconstituted drug product solution into infusion bags filled with NS, the recovery of Compound 1 was measured i) directly after mixing with the infusion vehicle (to, Table 14) and ii) after Δt=[…] of contact time with the infusion bag (Table 15). Additionally, storage in an infusion bag at ambient temperature and lighting conditions was assessed for Δt=6 h (Table 15). The average values of % recovery are relative to the reconstituted drug product that has not been in contact with the tested materials.

[4] = Liquid injectable formulation: compounding, dilution into infusion vehicles, stability; assay type: physicochemical
Description: Compounding process for liquid formulations of Compound 1, designed for dilution into infusion vehicles was developed with 3.0 mg/mL of Compound 1 (or 3.13 mg/mL Compound 1 free base equivalent), phosphate buffer solution (PBS), and pH of 6.4-7.2. The compounding process was applied over a wide range of scales (25-500 mL).
The compounding of the drug product required a neutralization step using 0.5N sodium hydroxide solution and buffering with PBS to adjust the pH to values compatible with an IV infusion. The compounding process also required a filtration step, which also served as aseptic processing.
The compounded formulations were diluted into infusion vehicles: normal saline, 5% dextrose in water (D5W), and lactated Ringer's solution (buffered and unbuffered). The dilution into normal saline was carried out at 100-fold and 600-fold dilution.

[5] = system: blood coagulation components (Cardiopulmonary Bypass circuit); assay type: in vivo
Description: The following parameters and endpoints were evaluated in this study: mortality, body weight, physical, clinical pathology parameters (hematology and coagulation), coagulation time, and bioanalytical parameters.
The vehicle and test article were administered via intravenous (IV) infusion once on Day 1 for 135 minutes (initiated 30 minutes prior to starting the Cardiopulmonary Bypass (CPB) and continuing for 105 minutes of CPB). Group 2 animals received a […] IV bolus dose immediately prior to the start of IV infusion. Group 3, 4, and 5 animals received a 10 mg/kg IV bolus dose prior to the start of the IV infusion; with the CPB machine primed with test article at 10 μg/mL.
Infusion of the Compound 1 was started 30 minutes prior to the animal being placed on the CPB pump. The CPB pump was primed with 0.9% saline.
Venous and arterial sheaths were flushed with the Compound 1 at a concentration of 10 μg/mL. An IV bolus dose of the test article was administered immediately prior to the start of the infusion. Infusion of Compound 1 was started 30 minutes prior to the animal being placed on the CPB pump. The CPB […] was primed with 10 μg/mL of the Compound 1 prior to initiation of the CPB pump.
An IV bolus dose of the Compound 1 was administered immediately prior to the start of the infusion. Infusion of Compound 1 was started 30 minutes prior to the animal being placed on the CPB pump.

## C[C@@H](NC(=O)N1C(=O)[C@H](Cc2ccnc(N)c2)[C@H]1C(=O)O)C1CCCCC1 [Compound 1, (2S,3R)-3-[(2-aminopyridin-4-yl)methyl]-1-{[(1R)-1-cyclohexylethyl]carbamoyl}-4-oxoazetidine-2-carboxylic acid]
[1]; citrate buffer, pH 2.72, aqueous buffer, citric acid/sodium 200 mM, pH (Buffer) 3.00, pH (Meas.) 2.72, room temperature 24 h
  solubility thermodynamic at 24 h: 5960 µg/mL (≈ 15.9 mM)
[1]; citrate buffer, pH 3.74, aqueous buffer, citric acid/sodium 200 mM, pH (Buffer) 4.00, pH (Meas.) 3.74, room temperature 24 h
  solubility thermodynamic at 24 h: 6200 µg/mL (≈ 16.6 mM)
[1]; pH 1.29, aqueous buffer, phosphoric acid/sodium phosphate 200 mM, pH (Buffer) 2.00, pH (Meas.) 1.29, room temperature 24 h
  solubility thermodynamic at 24 h: 159000 µg/mL (≈ 424 mM)
[1]; pH 4.57, aqueous buffer, acetic acid/sodium acetate 200 mM, pH (Buffer) 5.00, pH (Meas.) 4.57, room temperature 24 h
  solubility thermodynamic at 24 h: 7480 µg/mL (≈ 20 mM)
[1]; pH 6.33, aqueous buffer, sodium phosphate 200 mM, pH (Buffer) 7.00, pH (Meas.) 6.33, room temperature 24 h
  solubility thermodynamic at 24 h: 12000 µg/mL (≈ 32 mM)
[1]; pH 6.67, aqueous buffer, sodium phosphate 200 mM, pH (Buffer) 8.00, pH (Meas.) 6.67, room temperature 24 h
  solubility thermodynamic at 24 h: 15300 µg/mL (≈ 40.9 mM)
[2]; Reconst. Soln., no contact with tested materials
  Avg. c(Compound 1, FB, Obs.): 9.32 mg/mL
[2]; Stopper, t = 1 h, target 10 mg/mL, ambient
  Avg. c(Compound 1, FB, Obs.): 9.28 mg/mL
[2]; Vial, t = 1 h, target 10 mg/mL, ambient
  Avg. c(Compound 1, FB, Obs.): 9.28 mg/mL
[3]; Sample soln. (water), no contact with bags
  Avg. c(Compound 1, FB, Obs.): 0.09 mg/mL
[3]; infus. bag1 (500 mL Viaflo, NS), t0, vs sample soln.
  Avg. c(Compound 1, FB, Obs.): 0.09 mg/mL
[3]; infus. bag1, t = 10 min
  Avg. c(Compound 1, FB, Obs.): 0.09 mg/mL
[3]; infus. bag1, t = 6 h, ambient
  Avg. c(Compound 1, FB, Obs.): 0.09 mg/mL
[3]; infus. bag2 (50 mL Viaflex, NS), t0, vs sample soln.
  Avg. c(Compound 1, FB, Obs.): 0.08 mg/mL
[3]; infus. bag2, t = 10 min
  Avg. c(Compound 1, FB, Obs.): 0.08 mg/mL
[3]; infus. bag2, t = 6 h, ambient
  Avg. c(Compound 1, FB, Obs.): 0.08 mg/mL
[3]; infusion bag #1 (Viaflo) compared with infusion bag #2 (Viaflex), immediately after contact
  adsorption of Compound 1 to infusion bag material: lesser extent of Compound 1 adsorption
[4]; diluted into normal saline, 0.03 mg/mL, ambient, 48 hours
  pH over time: constant
[4]; diluted into normal saline, 0.03 mg/mL, ambient, over 48 hours
  purity over time: unchanged
[4]; formulation diluted into normal saline, 0.03 mg/mL
  time stable at ambient temperature: at least 48 hours
[4]; liquid formulation 3.0 mg/mL, PBS, pH 6.4-7.2
  loss of Compound 1 in filtration step of compounding: minimal loss or no loss
[4]; liquid formulations, 2-8° C., at least one week
  nominal degradation: < 4%
[5]; FIG. 12
  relation between plasma concentration and aPTT: correlation
[5]; all groups, following cessation of infusion and CPB
  aPTT: trended towards baseline values, but remained moderately prolonged
[5]; course during infusion and CPB
  prolongations in aPTT: persisted throughout Compound 1 infusion and CPB
[5]; dog, in vivo
  morbidity or mortality: not associated with any increases in morbidity or mortality
  survival: All animals survived
[5]; during Compound 1 infusion and prior to CPB, all animals
  aPTT: moderately to markedly prolonged
[5]; hound CPB model
  prevention of activation of blood coagulation in components of cardiopulmonary bypass: successful in preventing the activation of blood coagulation
[5]; hound CPB model, coagulation parameters
  selectivity of anticoagulant effects: selective to inhibition of activated partial thromboplastin time (aPTT)
[5]; multiple doses, IV infusion, CPB run
  pressure gradient across the membrane oxygenator: stayed consistent through the entire run
